Assay results as given in publication PMC11840605, “Crystallographic and Thermodynamic Evidence of Negative Coupling in the Flavin-Dependent Tryptophan Halogenases AbeH and BorH” (ACS Omega, 2025).
Entries after “also recorded” stand apart in the source; their conditions may differ.

Key:
[1] = target: T1, AbeH (uncultured bacterium, UniProt F6LWA5); test: FAD fluorescence quenching titration with AbeH; assay type: binding, uncultured soil actinomycetes
Protocol: Quenching of FAD fluorescence quenching upon binding to AbeH was measured in the absence and presence of Trp in 20 mM Tris-HCl pH 8.0 and 100 mM NaCl using a Quantmaster 40 fluorimeter (Photon Technologies International). Trp and FAD solutions were prepared in 20 mM Tris-HCl pH 8, and concentrations were determined by absorbance at 280 and 450 nm, respectively. FAD fluorescence was measured using excitation at 450 nm (4 nm slit opening) and emission set at 525 nm (6 nm slit opening) using a fluorescence cuvette to collect 50 scans, which were averaged later during data processing in Microsoft Excel. […] Raw fluorescence intensities were corrected for the buffer, Trp, and AbeH background contributions. Quenched fluorescence intensity was plotted vs AbeH concentration and fit to eq 1 using GraphPad Prism 8.0 by nonlinear regression analysis. In eq 1, F = fractional saturation, ΔF = fluorescence quenching upon AbeH/FAD complex formation (calculated from the difference of FAD fluorescence intensity at different AbeH concentration), ΔFmax = maximum fluorescence change obtained from fit, [AbeHFAD] = FAD-bound AbeH, [AbeH]T = Total AbeH concentration, [FAD]T = Total FAD concentration, KD = equilibrium dissociation constant. […]
A. Fluorescence quenching observed from binding of Apo-AbeH ([…]) to […] FAD; […]

[2] = target: AbeF; conditions: read-out: KD, flavin binding to AbeF; cited from earlier work
[3] = target: T1, AbeH; assay type: biochemical, uncultured soil actinomycetes; conditions: same reaction conditions
Protocol: To test the ability of BorH and AbeH to chlorinate and brominate other substrates, 100 μL reactions containing 5 μM AbeH or BorH, 10 μM of holo-AbeF or holo-BorF, 100 mM NaCl or NaBr, 2.5 mM NADH, and 0.5 mM substrate in HEPES pH 8.0 were incubated for 12 h at 37 °C with shaking at 230 rpm. The reactions were stopped by heating at 95 °C for 5 min and centrifuged at 12,000g for 5 min. Clarified reaction mixtures were analyzed using RP-HPLC on a Kromasil C18 column (100 Å pore size, 4.6 × 250 mm) mounted on a Waters 2695 HPLC. The gradient was as follows: 0–7.5 min, 5–50% B; 7.5–14 min, 50–100%; 14–25 min, 100% B; 25–40 min 100–5% B with flow rate 0.6 mL/min (Solvent A = H2O/CH3CN 95:5, 0.1% TFA; Solvent B = H2O/CH3CN 5/95, 0.1% TFA). Substrates and products were detected by monitoring UV absorbance at the λmax for each substrate. Product peak fractions were analyzed using ESI-MS on a SYNAPT HDMS mass spectrometer in positive ion mode with leucine enkephalin internal standard.

[4] = tested on: AbeH/FAD; test: Isothermal titration calorimetry, Trp into AbeH preincubated with FAD; assay type: binding, uncultured soil actinomycetes
Protocol: ITC experiments were performed using a VP-ITC isothermal titration calorimeter (MicroCal) in 20 mM HEPES pH 7.5, 350 mM NaCl, 1 mM ethylenediamine tetraacetic acid (EDTA) and 15% (v/v) glycerol. Solutions of AbeH, BorH, FAD (Chem-Implex), and Trp (Acros Organics) were prepared in the same buffer and degassed under vacuum at 30 °C for 20 min before loading in the syringe or cell. To analyze formation of binary complexes, AbeH or BorH was placed inside the cell, and ligand (FAD or Trp) was injected. For ternary complex titration, one ligand was preincubated with the macromolecule for 30 min at 30 °C to form binary complexes of AbeH/FAD, AbeH/Trp, BorH/FAD, and BorH/Trp before titrating with the second ligand. […] Formation of FADH2 by sodium dithionite was verified using absorbance and fluorescence spectrophotometry.
ITC experiments were performed with reference power set to 10 μcal/s and Milli-Q water in the reference cell. […] Heats of dilution for all titrants were measured by titrating ligand into buffer for binary complex titrations, and by titrating ligand into a solution containing the other ligand but no protein for ternary complex titration. […]
Titrations were analyzed by manually integrating each injection, subtracting the heat of dilution, and carrying out nonlinear least-squares fit of the calorimetric binding data to a one-site model using Origin 7.0 (Origin Lab). […]

T1 sequence (F6LWA5 entry or part of it): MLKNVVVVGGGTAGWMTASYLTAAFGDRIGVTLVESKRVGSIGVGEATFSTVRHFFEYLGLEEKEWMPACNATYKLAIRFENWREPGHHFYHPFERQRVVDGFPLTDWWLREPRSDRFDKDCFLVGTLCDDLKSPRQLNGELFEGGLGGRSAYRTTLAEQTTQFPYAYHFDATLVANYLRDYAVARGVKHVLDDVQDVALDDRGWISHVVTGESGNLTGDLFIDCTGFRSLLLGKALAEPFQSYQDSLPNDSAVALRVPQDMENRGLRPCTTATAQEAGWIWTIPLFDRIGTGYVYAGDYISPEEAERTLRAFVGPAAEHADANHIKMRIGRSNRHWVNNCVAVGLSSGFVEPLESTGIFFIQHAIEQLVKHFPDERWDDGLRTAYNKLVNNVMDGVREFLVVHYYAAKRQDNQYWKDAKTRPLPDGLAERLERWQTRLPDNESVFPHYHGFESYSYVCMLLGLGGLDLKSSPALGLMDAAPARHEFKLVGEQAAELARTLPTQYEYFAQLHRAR

Row | Structure (SMILES) | Kd [1] [µM] | Kd [2] [µM] | AbeH bromination compared with chlorination of the substrate, in words [3] | Binding of Trp to preincubated AbeH/FAD by ITC, in words ([4]; 27 mM Trp into 48 μM AbeH preincubated with 3.3 mM FAD, listed as Trp) | KD, Trp binding to AbeH/FAD, ITC ([4]; AbeH preincubated with FAD)
1 | Cc1cc2nc3c(=O)[nH]c(=O)nc-3n(C[C@H](O)[C@H](O)[C@H](O)COP(=O)(O)OP(=O)(O)OC[C@H]3O[C@@H](n4cnc5c(N)ncnc54)[C@H](O)[C@@H]3O)c2cc1C [FAD] | 1.6 ± 0.4 | 0.8 | – | – | –
2 | N[C@@H](Cc1c[nH]c2ccccc12)C(=O)O [Tryptophan, L-tryptophan] | – | – | prefers chlorination over bromination | No binding was observed; also recorded: no evidence of Trp binding | no binding
